Measurements published in ChEMBL document CHEMBL4665688, “Discovery of AB680: A Potent and Selective Inhibitor of CD73” (J Med Chem, 2020).

Key:
5'-nucleotidase [1] = molecular target: T1, 5'-nucleotidase (Homo sapiens, UniProt P21589); assay: Inhibition of human CD73 expressed in CHO cells using AMP as substrate preincubated for 60 mins followed by substrate addition and measured after 60 mins by PiColorLock gold reagent based colorimetric assay; format: cell-based
[2] = Clearance in Sprague-Dawley rat at 0.5 mg/kg, iv; format: ADME, organism-based; conditions: in vivo
5'-nucleotidase [3] = molecular target: T1, 5'-nucleotidase; assay: Inhibition of human CD73 using AMP as substrate by Malachite green phosphate reagent-based assay

T1 sequence (P21589 whole entry): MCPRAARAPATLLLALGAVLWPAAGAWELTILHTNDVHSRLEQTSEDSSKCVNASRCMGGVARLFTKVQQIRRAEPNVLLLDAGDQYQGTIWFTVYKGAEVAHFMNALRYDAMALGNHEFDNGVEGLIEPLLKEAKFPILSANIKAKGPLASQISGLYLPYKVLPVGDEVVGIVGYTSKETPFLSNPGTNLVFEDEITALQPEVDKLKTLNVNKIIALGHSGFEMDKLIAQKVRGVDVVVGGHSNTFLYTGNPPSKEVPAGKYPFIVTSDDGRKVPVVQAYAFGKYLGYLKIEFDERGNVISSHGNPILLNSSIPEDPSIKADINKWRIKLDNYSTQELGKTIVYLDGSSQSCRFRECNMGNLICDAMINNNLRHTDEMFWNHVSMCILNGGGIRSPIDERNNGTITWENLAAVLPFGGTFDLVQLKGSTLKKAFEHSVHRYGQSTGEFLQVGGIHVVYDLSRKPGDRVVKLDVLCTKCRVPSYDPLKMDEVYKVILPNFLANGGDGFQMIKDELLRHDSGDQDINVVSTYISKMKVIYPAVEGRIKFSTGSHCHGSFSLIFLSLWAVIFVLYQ

Row | SMILES | IC50 (5'-nucleotidase [1]) [nM] | clearance [2] [mL/min/kg] | IC50 (5'-nucleotidase [3]) [nM]
1 | Nc1nc(Cl)nc2c1ncn2[C@@H]1O[C@H](COP(=O)(O)CP(=O)(O)O)[C@@H](O)[C@@H]1F | 3.4 |  | 
2 | O=P(O)(O)CP(=O)(O)OC[C@H]1O[C@@H](n2cnc3c(N4CCCC4)nc(Cl)nc32)[C@@H](F)[C@@H]1O | 0.9 |  | 
3 | CCc1nc(NCc2ccccc2)c2ncn([C@@H]3O[C@H](COP(=O)(O)CP(=O)(O)O)[C@@H](O)[C@H]3O)c2n1 | 12 |  | 
4 | O=P(O)(O)CP(=O)(O)OC[C@H]1O[C@@H](n2cnc3c(NC4CCCC4)nc(C(O)c4ccccc4)nc32)[C@@H](F)[C@@H]1O (stereo partly specified) | 3.3 |  | 
5 | O=P(O)(O)CP(=O)(O)OC[C@H]1O[C@@H](n2cnc3c(NCc4ccncc4)nc(Cl)nc32)[C@@H](F)[C@@H]1O | 3.6 |  | 
6 | C[C@@H](Nc1nc(Cl)nc2c1ncn2[C@@H]1O[C@H](COP(=O)(O)CP(=O)(O)O)[C@@H](O)[C@@H]1F)c1ccccc1 | 1.6 | 4.67 | 
7 | Cc1nc(NCc2ccccc2)c2ncn([C@@H]3O[C@H](COP(=O)(O)CP(=O)(O)O)[C@@H](O)[C@@H]3F)c2n1 | 4 |  | 
8 | COCc1nc(NC2CCCC2)c2ncn([C@@H]3O[C@H](COP(=O)(O)CP(=O)(O)O)[C@@H](O)[C@@H]3F)c2n1 | 0.6 |  | 
9 | O=P(O)(O)CP(=O)(O)OC[C@H]1O[C@@H](n2cnc3c(NC4CCCC4)nc(Cl)nc32)[C@@H](F)[C@@H]1O | 0.4 | 2.5 | 
10 | O=P(O)(O)CP(=O)(O)OC[C@H]1O[C@@H](n2cnc3c(NCc4ccccc4)nc(C(F)(F)F)nc32)[C@@H](F)[C@@H]1O | 18 |  | 
11 | C[C@@H](Nc1nc(Cl)nc2c1ncn2[C@@H]1O[C@H](COP(=O)(O)CP(=O)(O)O)[C@@H](O)[C@H]1O)c1ccccc1 | 0.7 |  | 
12 | CNc1nc(NCc2ccccc2)c2ncn([C@@H]3O[C@H](COP(=O)(O)CP(=O)(O)O)[C@@H](O)[C@H]3O)c2n1 | 5 |  | 
13 | CN(c1nc(Cl)nc2c1ncn2[C@@H]1O[C@H](COP(=O)(O)CP(=O)(O)O)[C@@H](O)[C@H]1O)C1CCCC1 | 0.12 |  | 
14 | O=P(O)(O)CP(=O)(O)OC[C@H]1O[C@@H](n2cnc3c(NC4CCCC4)nc(C(O)C4CC4)nc32)[C@@H](F)[C@@H]1O (stereo partly specified) | 1.4 |  | 
15 | O=P(O)(O)CP(=O)(O)OC[C@H]1O[C@@H](n2cnc3c(N4Cc5ccccc5C4)nc(Cl)nc32)[C@@H](F)[C@@H]1O | 1.1 |  | 
16 | CCNc1nc(Cl)nc2c1ncn2[C@@H]1O[C@H](COP(=O)(O)CP(=O)(O)O)[C@@H](O)[C@@H]1F | 5 |  | 
17 | CN(c1nc(Cl)nc2c1ncn2[C@@H]1O[C@H](COP(=O)(O)CP(=O)(O)O)[C@@H](O)[C@@H]1F)C1CCCC1 | 0.15 |  | 

Row | SMILES | IC50 (5'-nucleotidase [1]) [nM] | clearance [2] [mL/min/kg] | IC50 (5'-nucleotidase [3]) [nM]
18 | O=P(O)(O)CP(=O)(O)OC[C@H]1O[C@@H](n2cnc3c(NCc4cccc(Cl)c4)nc(Cl)nc32)[C@@H](F)[C@@H]1O | 1.3 |  | 
19 | C#Cc1nc(NCc2ccccc2)c2ncn([C@@H]3O[C@H](COP(=O)(O)CP(=O)(O)O)[C@@H](O)[C@@H]3F)c2n1 | 2 |  | 
20 | O=P(O)(O)CP(=O)(O)OC[C@H]1O[C@@H](n2cnc3c(NCc4ccccc4)nc(CCc4ccccc4)nc32)[C@@H](F)[C@@H]1O | 18 |  | 
21 | O=P(O)(O)CP(=O)(O)OC[C@H]1O[C@@H](n2cnc3c(N[C@H]4CCOC4)nc(Cl)nc32)[C@@H](F)[C@@H]1O | 0.8 |  | 
22 | O=P(O)(O)CP(=O)(O)OC[C@H]1O[C@@H](n2ncc3c(NC4CCCC4)nc(Cl)nc32)[C@@H](F)[C@@H]1O | 0.15 | 4.5 | 
23 | O=P(O)(O)CP(=O)(O)OC[C@H]1O[C@@H](n2cnc3c(NC4CCCC4)nc(C(O)C4CCOCC4)nc32)[C@@H](F)[C@@H]1O (stereo partly specified) | 202 |  | 
24 | O=P(O)(O)CP(=O)(O)OC[C@H]1O[C@@H](n2cnc3c(NCc4ccccc4)nc(Cl)nc32)[C@@H](F)[C@@H]1O | 0.7 | 1 | 
25 | C[C@H](Nc1nc(Cl)nc2c1ncn2[C@@H]1O[C@H](COP(=O)(O)CP(=O)(O)O)[C@@H](O)[C@H]1O)c1ccccc1 | 0.3 |  | 
26 | O=P(O)(O)CP(=O)(O)OC[C@H]1O[C@@H](n2cnc3c(NCc4ccccc4Cl)nc(Cl)nc32)[C@@H](F)[C@@H]1O | 4.2 |  | 
27 | COc1nc(NCc2ccccc2)c2ncn([C@@H]3O[C@H](COP(=O)(O)CP(=O)(O)O)[C@@H](O)[C@H]3O)c2n1 | 2.2 |  | 
28 | O=P(O)(O)CP(=O)(O)OC[C@H]1O[C@@H](n2cnc3c(OCc4ccccc4)nc(Cl)nc32)[C@@H](F)[C@@H]1O | 1.3 |  | 
29 | Cc1nc(NCc2ccccc2)c2ncn([C@@H]3O[C@H](COP(=O)(O)CP(=O)(O)O)[C@@H](O)[C@H]3O)c2n1 | 1.3 |  | 
30 | O=P(O)(O)CP(=O)(O)OC[C@H]1O[C@@H](n2cnc3c(NCc4ccc(Cl)cc4)nc(Cl)nc32)[C@@H](F)[C@@H]1O | 2.4 |  | 
31 | C[C@H](Nc1nc(Cl)nc2c1ccn2[C@@H]1O[C@H](COP(=O)(O)CP(=O)(O)O)[C@@H](O)[C@H]1O)c1cccc(F)c1 | 0.032 | 0.667 | 
32 | Nc1ncnc2c1ncn2[C@@H]1O[C@H](COP(=O)(O)CP(=O)(O)O)[C@@H](O)[C@H]1F | 18 |  | 
33 | Nc1ncnc2c1ncn2[C@@H]1O[C@H](COP(=O)(O)CP(=O)(O)O)[C@@H](O)[C@H]1O [PHOSPHOMETHYLPHOSPHONIC ACID ADENOSYL ESTER] |  |  | 187

Continued by falling IC50 (5'-nucleotidase [1]), values first:

Row | IC50 (5'-nucleotidase [1]) [nM] | clearance [2] [mL/min/kg] | SMILES | IC50 (5'-nucleotidase [3]) [nM]
34 | 48 |  | O=P(O)(O)CP(=O)(O)OC[C@H]1O[C@@H](n2cnc3c(NCc4ccccc4)nc(N4CCCC4)nc32)[C@H](O)[C@@H]1O | 
35 | 12 |  | CNc1nc(Cl)nc2c1ncn2[C@@H]1O[C@H](COP(=O)(O)CP(=O)(O)O)[C@@H](O)[C@@H]1F | 
36 | 10 |  | O=P(O)(O)CP(=O)(O)OC[C@H]1O[C@@H](n2cnc3c(NCc4ccccc4)nc(-c4ccccc4)nc32)[C@@H](F)[C@@H]1O | 
37 | 5.9 |  | O=P(O)(O)CP(=O)(O)OC[C@H]1O[C@@H](n2ncc3c(NCc4ccccc4)nc(Cl)nc32)[C@@H](F)[C@@H]1O | 
38 | 5.4 | 0.483 | C[C@H](Nc1nc(Cl)nc2c1cnn2[C@@H]1O[C@H](COP(=O)(O)CP(=O)(O)O)[C@@H](O)[C@@H]1F)c1ccccc1 | 
39 | 5 |  | Nc1nc(Cl)nc2c1ncn2[C@@H]1O[C@H](COP(=O)(O)CP(=O)(O)O)[C@@H](O)[C@H]1O | 
40 | 4.1 | 0.35 | C[C@H](Nc1nc(Cl)nc2c1ncn2[C@@H]1O[C@H](COP(=O)(O)CP(=O)(O)O)[C@@H](O)[C@@H]1F)c1ccccc1 | 
41 | 3.6 |  | CC(C)Nc1nc(Cl)nc2c1ncn2[C@@H]1O[C@H](COP(=O)(O)CP(=O)(O)O)[C@@H](O)[C@@H]1F | 
42 | 2.6 |  | O=P(O)(O)CP(=O)(O)OC[C@H]1O[C@@H](n2cnc3c(NC4CC4)nc(Cl)nc32)[C@@H](F)[C@@H]1O | 
43 | 2.1 | 9.33 | C[C@@H](Nc1nc(Cl)nc2c1cnn2[C@@H]1O[C@H](COP(=O)(O)CP(=O)(O)O)[C@@H](O)[C@@H]1F)c1ccccc1 | 
44 | 1.7 |  | O=P(O)(O)CP(=O)(O)OC[C@H]1O[C@@H](n2cnc3c(NC4CC4)nc(Cl)nc32)[C@H](O)[C@@H]1O | 
45 | 1.5 |  | O=P(O)(O)CP(=O)(O)OC[C@H]1O[C@@H](n2cnc3c(NCc4ccccc4)nc(Cc4ccccc4)nc32)[C@@H](F)[C@@H]1O | 
46 | 0.7 |  | CC(C)Nc1nc(Cl)nc2c1ncn2[C@@H]1O[C@H](COP(=O)(O)CP(=O)(O)O)[C@@H](O)[C@H]1O | 
47 | 0.3 |  | O=P(O)(O)CP(=O)(O)OC[C@H]1O[C@@H](n2cnc3c(NCc4ccccc4)nc(Cl)nc32)[C@H](O)[C@@H]1O | 
48 | 0.2 |  | O=P(O)(O)CP(=O)(O)OC[C@H]1O[C@@H](n2cnc3c(NC4CCCC4)nc(Cl)nc32)[C@H](O)[C@@H]1O | 
49 | 0.095 |  | C[C@H](Nc1nc(Cl)nc2c1cnn2[C@@H]1O[C@H](COP(=O)(O)CP(=O)(O)O)[C@@H](O)[C@H]1O)c1ccc(F)cc1 | 
50 | 0.07 | 0.667 | C[C@H](Nc1nc(Cl)nc2c1cnn2[C@@H]1O[C@H](COP(=O)(O)CP(=O)(O)O)[C@@H](O)[C@H]1O)c1ccccc1F | 
51 | 0.058 | 2.83 | C[C@@H](Nc1nc(Cl)nc2c1cnn2[C@@H]1O[C@H](COP(=O)(O)CP(=O)(O)O)[C@@H](O)[C@H]1O)c1ccccc1 | 
52 | 0.052 | 3.33 | O=P(O)(O)CP(=O)(O)OC[C@H]1O[C@@H](n2ncc3c(NCc4ccccc4)nc(Cl)nc32)[C@H](O)[C@@H]1O | 
53 | 0.031 | 0.833 | C[C@H](Nc1nc(Cl)nc2c1cnn2[C@@H]1O[C@H](COP(=O)(O)CP(=O)(O)O)[C@@H](O)[C@H]1O)c1cccc(F)c1 | 
54 | 0.031 | 0.5 | C[C@H](Nc1nc(Cl)nc2c1ccn2[C@@H]1O[C@H](COP(=O)(O)CP(=O)(O)O)[C@@H](O)[C@H]1O)c1ccc(F)cc1 | 
55 | 0.028 | 0.833 | C[C@H](Nc1nc(Cl)nc2c1ccn2[C@@H]1O[C@H](COP(=O)(O)CP(=O)(O)O)[C@@H](O)[C@H]1O)c1ccccc1F | 
56 | 0.027 | 10.5 | O=P(O)(O)CP(=O)(O)OC[C@H]1O[C@@H](n2ncc3c(NC4CCCC4)nc(Cl)nc32)[C@H](O)[C@@H]1O | 
